Reference: US10774071B2, “PD-1/PD-L1 inhibitors” (Gilead Sciences, Inc., priority 2018, dated 2020)
Where two headings read alike, the source gives them in different places.

Tests used:
[1] = target: PD-1/PD-L1 (Homo sapiens (Human), UniProt Q9NZQ7); assay: PD-1/PD-L1 biochemical protein-protein interaction assay (ALPHA); type: binding; conditions: read-out: IC50 PD-L1-PD1
Procedure: Compounds were tested in biochemical protein-protein interaction assays to determine if they can specifically block the interaction between the extracellular domains of PD-1/PD-L1 or CTLA/CD80. Binding of the protein pairs is measured using a bead based Amplified Luminescent Proximity Homogeneous Assay (ALPHA) platform. […] Final protein concentration in the assays were 0.3 nM (His tagged PD-L1), 2.5 nM (biotinylated Fc-PD-1), 1 nM (His tagged CTLA4) and 1 nM (biotinylated CD80).

[2] = target: PD-L1 (Homo sapiens (Human), UniProt Q9NZQ7); assay: PD-L1/PD-L1 dimerization biochemical protein-protein interaction assay (ALPHA); type: binding; conditions: read-out: AC50 PDL1 Dimer 1 nM
Sequence of PD-L1 (Q9NZQ7 19-238): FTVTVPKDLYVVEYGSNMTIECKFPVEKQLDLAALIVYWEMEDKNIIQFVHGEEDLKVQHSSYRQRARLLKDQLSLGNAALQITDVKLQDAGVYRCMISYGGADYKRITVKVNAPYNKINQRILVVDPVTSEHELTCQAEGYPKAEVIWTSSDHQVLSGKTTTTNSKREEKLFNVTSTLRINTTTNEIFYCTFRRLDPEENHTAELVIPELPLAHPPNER
Sequence of PD-L1 (Q9NZQ7 19-238): as above

[3] = 0.3 nM His tagged PD-L1, 2.5 nM biotinylated Fc-PD-1, readings of 0.064 nM are equal to or less than 0.064 nM
[4] = 0.5 nM His tagged PD-L1 and 0.5 nM FLAG tagged PD-L1, Table 4A
[5] = 0.3 nM His tagged PD-L1, 2.5 nM biotinylated Fc-PD-1, Table 3B
[6] = 0.5 nM His tagged PD-L1 and 0.5 nM FLAG tagged PD-L1, Table 4B

Sequence of PD-1/PD-L1 (Q9NZQ7 19-238): as above

AC50 [2, 6] [nM]	SMILES	further results
	COc1nc(-c2cccc(-c3cccc4c3CC[C@@H]4Nc3nc(OC)c(CN[C@H](C(=O)O)C4CC4)cc3C(F)(F)F)c2Cl)ccc1CN[C@H]1C[C@](C)(O)C1 [A-90]	IC50 [1, 3]: ≤ 0.064 nM; AC50 [2, 4]: 21.6 nM
	COc1cc(N[C@H]2CCc3c(-c4cccc(-c5ccc(CNC[C@@H]6CCC(=O)N6)c(OC)n5)c4Cl)cccc32)c(C(F)(F)F)nc1CN1CC[C@@H](C(=O)O)C1 [A-43]	IC50 [1, 3]: ≤ 0.064 nM; AC50 [2, 4]: 9.89 nM
	COc1cc(-c2cccc(-c3cccc4c3CC[C@@H]4Nc3nc(OC)c(CN4CC[C@@H](C(=O)O)C4)cc3C(F)(F)F)c2Cl)ccc1CNC[C@@H]1CCC(=O)N1 [A-36]	IC50 [1, 3]: ≤ 0.064 nM; AC50 [2, 4]: 2.05 nM
	COc1nc(-c2cccc(-c3cccc4c3CC[C@@H]4Nc3nc(OC)c(CN4CC(C(=O)O)C4)cc3C(F)(F)F)c2Cl)ccc1CN1CC(C)(O)C1 [A-54]	IC50 [1, 3]: ≤ 0.064 nM; AC50 [2, 4]: 76.6 nM
	COc1nc(-c2cccc(-c3cccc4c3CC[C@@H]4Nc3nc(OC)c(CN4CC(C(=O)O)C4)cc3C(F)(F)F)c2Cl)ccc1CN[C@H]1C[C@](C)(O)C1 [A-57]	IC50 [1, 3]: ≤ 0.064 nM; AC50 [2, 4]: 29.6 nM
	COc1nc(-c2cccc(-c3cccc4c3CC[C@@H]4Nc3nc(OC)c(CNCC(=O)O)nc3C(F)(F)F)c2Cl)ccc1CNC[C@H]1C[C@](C)(O)C1 [A-87]	IC50 [1, 3]: ≤ 0.064 nM; AC50 [2, 4]: 22.3 nM
3.59	COc1cc(-c2cccc(-c3cccc4c3CC[C@@H]4Oc3nc(OC)c(CN4CC[C@@H](C(=O)O)C4)cc3Cl)c2Cl)ccc1CNC[C@@H]1CCC(=O)N1 [B-41]	IC50 [1, 5]: 0.064 nM
133	COc1nc(O[C@H]2CCc3c(-c4cccc(-c5cc(C)c(CN6CC(C(=O)O)C7(CC7)C6)c(OC)n5)c4Cl)cccc32)c(Cl)cc1CNC[C@@H]1CCC(=O)N1 (stereo partly drawn) [B-123]	IC50 [1, 5]: 0.064 nM
70.8	COc1nc(O[C@H]2CCc3c(-c4cccc(-c5cnc([C@@H](C)NC[C@H]6CCC(=O)N6)c(OC)n5)c4Cl)cccc32)c(Cl)cc1CN1CC[C@@H](C(=O)O)C1 [B-79]	
27.5	COc1nc(-c2cccc(-c3cccc4c3CC[C@@H]4Oc3nc(OC)c(CN[C@]4(C(=O)O)C[C@H](F)C4)cc3C(F)(F)F)c2Cl)ccc1CNC[C@@H]1CCC(=O)N1 [B-230]	IC50 [1, 5]: 0.064 nM
211	COc1nc(-c2cccc(-c3cccc4c3CC[C@@H]4Oc3nc(OC)c(CN4C[C@@H]5CCC[C@]5(C(=O)O)C4)cc3Cl)c2Cl)ccc1CN1CC(C)(O)C1 [B-83]	IC50 [1, 5]: 0.064 nM
13.5	COc1cc(-c2cccc(-c3cccc4c3CC[C@@H]4Oc3nc(OC)c(CNC4(C(=O)O)CC4)cc3Cl)c2Cl)cc(F)c1CNC[C@@H]1CCC(=O)N1 [B-128]	IC50 [1, 5]: 0.064 nM
	COc1nc(-c2cccc(-c3cccc4c3CC[C@@H]4Nc3nc(OC)c(CN4CC[C@@H](C(=O)O)C4)nc3C(F)(F)F)c2Cl)ccc1CNC[C@@H]1CCC(=O)N1 [A-19]	IC50 [1, 3]: ≤ 0.064 nM; AC50 [2, 4]: 26.1 nM
	COc1nc(-c2cccc(-c3cccc4c3CC[C@@H]4Nc3nc(OC)c(CN4CC[C@@](C)(C(=O)O)C4)nc3C(F)(F)F)c2Cl)ccc1CNC[C@@H]1CCC(=O)N1 [A-20]	IC50 [1, 3]: ≤ 0.064 nM; AC50 [2, 4]: 29.1 nM
	COC(=O)[C@H](C)NCc1nc(C(F)(F)F)c(N[C@H]2CCc3c(-c4cccc(-c5ccc(CNC[C@@H]6CCC(=O)N6)c(OC)n5)c4Cl)cccc32)nc1OC [A-99]	IC50 [1, 3]: 0.397 nM; AC50 [2, 4]: 110 nM
	COc1nc(-c2cccc(-c3cccc4c3CC[C@@H]4Nc3nc(OC)c(CN[C@@H](C)C(=O)O)nc3C(F)(F)F)c2Cl)ccc1CNC[C@H]1C[C@](C)(O)C1 [A-86]	IC50 [1, 3]: ≤ 0.064 nM; AC50 [2, 4]: 29.2 nM
	COc1nc(-c2cccc(-c3cccc4c3CC[C@@H]4Nc3nc(OC)c(CN[C@@H](C)C(=O)O)nc3C(F)(F)F)c2Cl)ccc1CNC[C@H]1C[C@H](O)C1 [A-48]	IC50 [1, 3]: ≤ 0.064 nM; AC50 [2, 4]: 13.5 nM
18.2	COc1nc(-c2cccc(-c3cccc4c3CC[C@@H]4Oc3nc(OC)c(C(C)NCCC(=O)O)cc3C(F)(F)F)c2Cl)ccc1CNC[C@@H]1CCC(=O)N1 (stereo partly drawn) [B-120]	IC50 [1, 5]: 0.064 nM
97.1	COc1nc(-c2cccc(-c3cccc4c3CC[C@@H]4Oc3nc(OC)c(CN4CC(C(=O)NS(=O)(=O)C(F)F)C4)cc3Cl)c2Cl)ccc1CNC[C@@H]1CCC(=O)N1 [B-110]	
38.1	COc1nc(-c2cccc(-c3cccc4c3CC[C@@H]4Oc3nc(OCc4cncc(C#N)c4)c(CN4CC[C@@H](C(=O)O)C4)cc3Cl)c2Cl)ccc1CNC[C@@H]1CCC(=O)N1 [B-66]	
37.3	COc1nc(-c2cccc(-c3cccc4c3CC[C@@H]4Oc3nc(OC)c(CN4CC[C@H](C(=O)NS(C)(=O)=O)C4)cc3Cl)c2Cl)ccc1CNC[C@@H]1CCC(=O)N1 [B-84]	
93.8	COc1nc(-c2cccc(-c3cccc4c3CC[C@@H]4Oc3nc(OC)c(CN4CC(C(=O)NS(C)(=O)=O)C4)cc3Cl)c2Cl)ccc1CN1CC(C)(O)C1 [B-75]	
83.2	COc1nc(-c2cccc(-c3cccc4c3CC[C@@H]4Oc3nc(OC)c(CN4CC[C@@H](C(=O)NS(C)(=O)=O)C4)cc3Cl)c2Cl)ccc1CN1CC(C)(O)C1 [B-76]	

AC50 [2, 6] [nM]	SMILES	further results
139	COc1nc(-c2cccc(-c3cccc4c3CC[C@@H]4Oc3nc(OC)c(CN4CC[C@@H](C(=O)NS(=O)(=O)C(F)F)C4)cc3Cl)c2Cl)ccc1CNC[C@@H]1CCC(=O)N1 [B-111]	
29.9	COc1nc(-c2cccc(-c3cccc4c3CC[C@@H]4Oc3nc(OC)c(CN4CC[C@@H](C(=O)NS(C)(=O)=O)C4)cc3Cl)c2Cl)ccc1CNC[C@@H]1CCC(=O)N1 [B-113]	
27.4	CCOc1nc(O[C@H]2CCc3c(-c4cccc(-c5ccc(CNC[C@@H]6CCC(=O)N6)c(OC)n5)c4Cl)cccc32)c(Cl)cc1CN1CC[C@H](C(=O)O)C1 [B-47]	
	COc1nc(-c2cccc(-c3cccc4c3CC[C@@H]4Nc3nc(OC)c(CNC4(C(=O)O)CC4)cc3C(F)(F)F)c2Cl)ccc1CN1CC2(CCC(=O)N2)C1 [A-23]	IC50 [1, 3]: ≤ 0.064 nM
4.08	COc1nc(-c2cccc(-c3cccc4c3CC[C@@H]4Oc3nc(OCc4cncc(Cl)c4)c(CNC4(C(=O)O)CC4)cc3C(F)(F)F)c2Cl)ccc1CNC[C@@H]1CCC(=O)N1 [B-29]	
103	COc1nc(-c2cccc(-c3cccc4c3CC[C@@H]4Oc3nc(OC)c(CN4CC(C(=O)O)C4)cc3Cl)c2Cl)ccc1CN1CC(C)(O)C1 [B-100]	
30.3	COc1nc(-c2cccc(-c3cccc4c3CC[C@@H]4Oc3nc(OCc4cncc(C#N)c4)c(CN4CC5(C(=O)O)CCC4CC5)cc3Cl)c2Cl)ccc1CNC[C@@H]1CCC(=O)N1 [B-67]	
14.7	COc1nc(-c2cccc(-c3cccc4c3CC[C@@H]4Oc3nc(OCc4cncc(F)c4)c(CN4CC5(C(=O)O)CCC4CC5)cc3Cl)c2Cl)ccc1CNC[C@@H]1CCC(=O)N1 [B-33]	
15.3	COc1nc(-c2cccc(-c3cccc4c3CC[C@@H]4Oc3nc(OCc4cncc(C#N)c4)c(CN4CC[C@H](C(=O)O)C4)cc3Cl)c2Cl)ccc1CNC[C@@H]1CCC(=O)N1 [B-65]	
31.1	COc1nc(-c2cccc(-c3cccc4c3CC[C@@H]4Oc3nc(OC)c(CN[C@@H]4CCC[C@@H]4C(=O)O)cc3Cl)c2Cl)ccc1CNC[C@@H]1CCC(=O)N1 [B-53]	
4.29	COc1nc(-c2cccc(-c3cccc4c3CC[C@@H]4Oc3nc(OC)c(CN4CCC[C@@]4(C)C(=O)O)cc3Cl)c2Cl)ccc1CNC[C@@H]1CCC(=O)N1 [B-17]	
48.6	COc1nc(-c2cccc(-c3cccc4c3CC[C@@H]4Oc3nc(OC(F)F)c(CN4CC5(C(=O)O)CCC4CC5)cc3Cl)c2Cl)ccc1CNC[C@@H]1CCC(=O)N1 [B-40]	
170	CCS(=O)(=O)NC(=O)[C@@H]1CCN(Cc2cc(Cl)c(O[C@H]3CCc4c(-c5cccc(-c6ccc(CNC[C@@H]7CCC(=O)N7)c(OC)n6)c5Cl)cccc43)nc2OC)C1 [B-112]	
696	COC(=O)[C@@H]1CCN(Cc2cc(Cl)c(O[C@H]3CCc4c(-c5cccc(-c6ccc(CNC[C@@H]7CCC(=O)N7)c(OC)n6)c5Cl)cccc43)nc2OC)C1 [B-108]	
14.7	CCOc1nc(O[C@H]2CCc3c(-c4cccc(-c5ccc(CNC[C@@H]6CCC(=O)N6)c(OC)n5)c4Cl)cccc32)c(Cl)cc1CN1CC2(C(=O)O)CCC1CC2 [B-46]	
17.5	COc1nc(-c2cccc(-c3cccc4c3CC[C@@H]4Oc3nc(OC)c(CN4CCC[C@H]4C(=O)O)cc3Cl)c2Cl)ccc1CNC[C@@H]1CCC(=O)N1 [B-18]	
10.2	COc1nc(-c2cccc(-c3cccc4c3CC[C@@H]4Oc3nc(OC)c(CNC4(C(=O)O)CC4)cc3Cl)c2Cl)ccc1CNC[C@@H]1CCC(=O)N1 [B-54]	
24.5	COc1nc(-c2cccc(-c3cccc4c3CC[C@@H]4Oc3nc(OC)c(CN4CCC[C@@H]4C(=O)O)cc3Cl)c2Cl)ccc1CNC[C@@H]1CCC(=O)N1 [B-16]	
9.55	COc1nc(-c2cccc(-c3cccc4c3CC[C@@H]4Oc3nc(OC)c(CNC4(C(=O)O)CCOCC4)cc3Cl)c2Cl)ccc1CNC[C@@H]1CCC(=O)N1 [B-15]	
40.9	COc1nc(-c2cccc(-c3cccc4c3CC[C@@H]4Oc3nc(OC)c(CN4CCC[C@@H](C(=O)NS(C)(=O)=O)C4)cc3Cl)c2Cl)ccc1CNC[C@@H]1CCC(=O)N1 [B-109]	
9.06	COc1nc(-c2cccc(-c3cccc4c3CC[C@@H]4Oc3nc(OC)c(CNC4(C(=O)O)CCC4)cc3Cl)c2Cl)ccc1CNC[C@@H]1CCC(=O)N1 [B-35]	
783	CCOC(=O)C1CN(Cc2cc(Cl)c(O[C@H]3CCc4c(-c5cccc(-c6ccc(CNC[C@@H]7CCC(=O)N7)c(OC)n6)c5Cl)cccc43)nc2OC)C1 [B-105]	

SMILES	AC50 [2, 6] [nM]	further results
COc1nc(-c2cccc(-c3cccc4c3CC[C@@H]4Oc3nc(OCC#N)c(CN4CC5(C(=O)O)CCC4CC5)cc3Cl)c2Cl)ccc1CNC[C@@H]1CCC(=O)N1 [B-55]	10.7	
